Where only a bound is given, the exact number is not on record here.

Our source for the IC50 values is patent US20240391882A1 (Mirati Therapeutics, Inc., priority 2023, published 2024).

Common to all, as to assay type: cell-based
Test [1] concerns pAKT in T47D (PI3Kα H1047R mutant) cells. Nature of the test: Inhibition of pAKT (alphaLISA Surefire Ultra AKT 1/2/3 pS473) in T47D cells. The note with it: Homo sapiens; T47D (PI3Kα H1047R mutant) cells, 24 hr compound incubation, alphaLISA pS473; read-out: T47D (H1047R) pAKT 24 hr (IC50). Summed up: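 AlphaLISA read-out of AKT pS473 in lysates after roughly 24 h compound exposure at 37° C in HBSS. Ten concentrations, 1:4 dilutions from a 10.4 μm top dose. Percent of control uses alpelisib at 3.125 μm as background and DMSO as vehicle; four-parameter curve gives IC50.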
In general terms: Alpha assays give light when donor and acceptor beads are brought close together.

Test [2] relates to pAKT in SKBR3 (PI3Kα wild type) cells. In words: Inhibition of pAKT (alphaLISA Surefire Ultra AKT 1/2/3 pS473) in SKBR3 cells. The note with it: Homo sapiens, SK-BR-3, approximately 24 hours treatment, read-out: SKBR3 (WT) pAKT IC50. As for the experimental part: The ability of a compound of Formula (I) to inhibit the formation of pAKT was measured using alphaLISA Surefire Ultra AKT 1/2/3 (pS473) Assay Kit (#ALSU-PAKT-B50K) was obtained from Perkin Elmer (Waltham, MA).
To prepare assay plates for pAKT alphaLISA assays, cells were trypsinized, resuspended in fresh media, and viable cells were counted utilizing trypan blue exclusion. Prior to seeding, cells were washed with PBS and resuspended in HBSS (Gibco, #14025092). T47D (12,000/w), SKBR3 (12,000/w), or MKN1 (24,000/w) cells were seeded at 12 μl per well in a solid white flat bottom 384 cell culture plate (Perkin Elmer #6007680).
Immediately after seeding, cells were dosed using an Echo Liquid Handler (Beckman Coulter) with compounds at a 10.4 μm starting concentration and serially diluted (1:4) for a total of 10 concentrations. […] Plates were then imaged the following day using a CLARIOstar microplate reader (BMG Labtech, Germany).
Percent of control values were calculated by subtracting the average signal from the positive control (alpelisib) treated wells from all treated wells (including DMSO control wells) and then divided by the average signal from the vehicle DMSO treated control wells. Percent of vehicle control values were plotted as log(inhibitor) vs. response—Variable slope (four parameters) for curve fitting and IC50 values were determined using XLfit.

The test system of test [3] is T47D (PI3Kα H1047R mutant) cells. Nature of the test: Cell viability (CellTiter-Glo 2.0) in T47D cells. The note with it: Homo sapiens, T47D, 72 h, approximately 72 hours. The method, boiled down: (§1)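 IC50 values derive from four-parameter fits of CellTiter-Glo luminescence expressed as percent of vehicle control. Cells (T47D or SKBR3) were plated at 1000/well the day before dosing and incubated about 72 h at 37° C with a 10-point, 1:4 series starting at 10 μm.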
(In general: Cellular ATP, detected with luciferase, serves as a proxy for viable cell number.)

The test system of test [4] is SKBR3 (PI3Kα wild type) cells. In words: Cell viability (CellTiter-Glo 2.0) in SKBR3 cells. Particulars: Homo sapiens, SK-BR-3; SKBR3 (PI3Kα wild type) cells, approximately 72 hours, CellTiter-Glo 2.0; read-out: SKBR3 (WT) Viability IC50. The method, boiled down:
as §1

With `Cc1cc(C(C)Nc2ccccc2C(=O)O)c2nc(N3CCCCC3)c(C#N)nc2c1` (stereo not shown) [Example 1, 2-((1-(2-cyano-7-methyl-3-(piperidin-1-yl)quinoxalin-5-yl)ethyl)amino)benzoic acid], the IC50 – broadly, the concentration at which inhibition is half-maximal – in test [1] was 39 nM; in test [2] it was > 10000 nM; in test [3], 456 nM; in test [4] it was > 10000 nM.

Consider `Cc1cc([C@@H](C)Nc2ccc(Cl)nc2C(=O)O)c2nc(N3CC4(C3)CC(F)(F)C4)c(C#N)nc2c1` [Example 255, (R)-6-chloro-3-((1-(2-cyano-3-(6,6-difluoro-2-azaspiro[3.3]heptan-2-yl)-7-methylquinoxalin-5-yl)ethyl)amino)picolinic acid], for which the IC50 in test [1] is 3.7 nM; in test [3] it was 170 nM; in test [4], > 10000 nM.

For the compound `Cc1cc([C@@H](C)Nc2ccc(Cl)nc2C(=O)O)c2nc(N3CC4(CCC4(F)F)C3)c(C#N)nc2c1` [Example 256, (R)-6-chloro-3-((1-(2-cyano-3-(5,5-difluoro-2-azaspiro[3.3]heptan-2-yl)-7-methylquinoxalin-5-yl)ethyl)amino)picolinic acid], the IC50 in test [1] was 0.11 nM; in test [3], 310 nM; in test [4] it was > 10000 nM.

On to `Cc1cc([C@@H](C)Nc2ccc(Cl)nc2C(=O)O)c2nc(N3CC4(CC(F)C4)C3)c(C#N)nc2c1` [Example 258, (R)-6-chloro-3-((1-(2-cyano-3-(6-fluoro-2-azaspiro[3.3]heptan-2-yl)-7-methylquinoxalin-5-yl)ethyl)amino)picolinic acid], for which the IC50 came out at 2.99 nM in test [1], 86 nM in test [3] and 8700 nM in test [4].

With `Cc1cc([C@@H](C)Nc2ccc(Cl)nc2C(=O)O)c2nc(N3CC4(CC(O)C4)C3)c(C#N)nc2c1` [Example 259, (R)-6-chloro-3-((1-(2-cyano-3-(6-hydroxy-2-azaspiro[3.3]heptan-2-yl)-7-methylquinoxalin-5-yl)ethyl)amino)picolinic acid], the results for the IC50 in test [1], in test [3] and in test [4] were 1.5 nM, 75 nM and > 10000 nM, respectively.

For the compound `Cc1cc([C@@H](C)Nc2ccc(Cl)nc2C(=O)O)c2nc(N3CCC[C@H]([C@H](C)O)C3)c(C#N)nc2c1` [Example 261A, 6-chloro-3-(((R)-1-(2-cyano-3-((S)-3-((S)-1-hydroxyethyl)piperidin-1-yl)-7-methylquinoxalin-5-yl)ethyl)amino)picolinic acid], the values for the IC50 in test [1], in test [3] and in test [4] were 3.2 nM, 79 nM and > 10000 nM, respectively.

Regarding `Cc1cc([C@@H](C)Nc2ccc(Cl)nc2C(=O)O)c2nc(N3CCC[C@H]([C@@H](C)O)C3)c(C#N)nc2c1` [Example 261B, 6-chloro-3-(((R)-1-(2-cyano-3-((S)-3-((R)-1-hydroxyethyl)piperidin-1-yl)-7-methylquinoxalin-5-yl)ethyl)amino)picolinic acid], the IC50 in test [1] is 2.6 nM; in test [3], 98 nM; in test [4], > 10000 nM.

On to `Cc1cc([C@@H](C)Nc2ccc(Cl)nc2C(=O)O)c2nc(N3CCC[C@@H]([C@H](C)O)C3)c(C#N)nc2c1` [Example 261C, 6-chloro-3-(((R)-1-(2-cyano-3-((R)-3-((S)-1-hydroxyethyl)piperidin-1-yl)-7-methylquinoxalin-5-yl)ethyl)amino)picolinic acid], for which the values for the IC50 in test [1], in test [3] and in test [4] were 2.1 nM, 78 nM and > 10000 nM, respectively.

For `Cc1cc([C@@H](C)Nc2ccc(Cl)nc2C(=O)O)c2nc(N3CCC[C@@H]([C@@H](C)O)C3)c(C#N)nc2c1` [Example 261D, 6-chloro-3-(((R)-1-(2-cyano-3-((R)-3-((R)-1-hydroxyethyl)piperidin-1-yl)-7-methylquinoxalin-5-yl)ethyl)amino)picolinic acid], the IC50 was 1.2 nM in test [1], 76 nM in test [3] and > 10000 nM in test [4].

Turning to `Cc1cc([C@@H](C)Nc2ccc(Cl)nc2C(=O)O)c2nc(N3CCCC(F)(F)CC3)c(C#N)nc2c1` [Example 847, (R)-6-chloro-3-((1-(2-cyano-3-(4,4-difluoroazepan-1-yl)-7-methylquinoxalin-5-yl)ethyl)amino)picolinic acid], the IC50 in test [1] came to 1.8 nM; in test [3], 59 nM; in test [4] it was 4940 nM.

On to `Cc1cc([C@@H](C)Nc2ccc(Cl)nc2C(=O)O)c2nc(N3C[C@H]4CSC[C@H]4C3)c(C#N)nc2c1` [Example 848, 6-chloro-3-(((R)-1-(2-cyano-7-methyl-3-cis-tetrahydro-1h-thieno[3,4-c]pyrrol-5(3H)-ylquinoxalin-5-yl)ethyl)amino)picolinic acid], for which the IC50 in test [1] is 1.7 nM; in test [3], 90 nM; in test [4], 7680 nM.
